Assay results taken from publication PMC9929129, “Towards Translation of PqsR Inverse Agonists: From In Vitro Efficacy Optimization to In Vivo Proof‐of‐Principle” (Advanced Science, 2023).
Like-named read-outs stand apart in the source and are kept apart here.

Legend:
[1] = target: T1, NET human norepinephrine transporter (Homo sapiens, UniProt P23975); experiment: NET functional antagonist uptake assay (Eurofins); assay type: cell-based
T1 construct: Eurofins 302000
Procedure: (§1) 1.4.2 Further functional off-target assays (Eurofins)
(§2) Table S8. Compound 24 was further tested in the following functional assays at Eurofins.
ASSAY NAME ESTIMATED IC50 [µM]
NET human norepinephrine transporter functional antagonist uptake >10 µM […]
(§3) FLIPR Assay expressed in HEK293 cells
(§4) GABAA α5/β3/γ2 ionotropic receptor (human GABRA5, GABRB3, >30
(§5) and GABRG2 genes, expressed in HEK293 cells

[2] = target: T2, HTR2B Human 5-Hydroxytryptamine GPCR (Homo sapiens, UniProt P41595); experiment: HTR2B GPCR calcium assay, 86-0030P-2091AN; assay type: cell-based
T2 construct: 86-0030P-2091AN
From the text: as §1, §2
ASSAY NAME ESTIMATED IC50 [µM] […]
as §3, §4, §5

[3] = target: T3, Kv1.3 potassium channel (Homo sapiens, UniProt P22001); experiment: Ion channel profiling at Charles River: Kv1.3; assay type: cell-based; details: expressed in CHO cells; read-out: ESTIMATED IC50
T3 construct: host or cells: CHO cells
Procedure: (§6) 1.4.3 Ion Channel Profiling at Charles River
Table S9. Compound 24 was tested against the following ion channels at Charles River Laboratories.
ASSAY TYPE ION CHANNEL AND EXPRESSION SYSTEM ESTIMATED […]
ScreenPatch Assay Kv1.3 potassium channel (human KCNA3 gene) expressed in CHO […]
as §3, §4, §5

[4] = test system: Pseudomonas aeruginosa strain RP73; experiment: Alkylquinolone quantification, strain RP73; assay type: cell-based; details: RP73, 17 h
Procedure: re-extracted with 0.2 M HCl and quantified photometrically (520 nm). IC50 values were determined from dose-response curves of compounds using at least six different concentrations and fitting with non-linear regression analysis (OriginPro 2017–2020, Originlab Corporation).
1.2.3 Alkylquinolone quantification
Inhibition of alkylquinolone (AQ) signal molecule biosynthesis of compound 24 was analyzed via LC-ESI-MS/MS. Extracellular concentrations of the AQs PQS (2-heptyl-3-hydroxy-4-quinolone), HHQ (2-heptyl-4-quinolone), HQNO (N-oxo-2-heptyl-4-Hydroxyquinoline), 2-AA (2-aminoacetophenone) were measured from supernatants of cultures incubated with or without compound for 17 h. 5,6,7,8-Tetradeutero-2-heptyl-4(1H)-quinolone (HHQ-d4) was added as internal standard before sample preparation. IC50 values were calculated according to the procedure of the pyocyanin assay (see above). LC-ESI-MS/MS conditions were as follows: Dionex Ultimate 3000 HPLC instrument parameters: Zorbax Eclipse XDB 80 Å C18 5 µm 4.6 x 50 mm (Agilent, Santa Clara, CA, USA); eluent A – H2O with 0.1% trifluoroacetic acid (TFA), 0.1% pentafluoropropionic acid (PFPA), 0.1% heptafluorobutyric acid (HFBA); eluent B – acetonitrile with 0.1% TFA, 0.1% PFPA, 0.1% HFBA; isocratic 50% A; flow – 0.7 mL/min. TSQ Quantum Access Max (Thermo Fisher Scientific, Waltham, MA, USA) instrument parameters: Spray voltage 3500 V, vaporizer temperature 370 °C, sheath gas pressure 35 psi, aux gas pressure 30 psi, capillary temperature 270 °C, collision pressure 1.5 mTorr, positive ionization mode. For AQ analyte reaction monitoring parameters please see Table S1.
Table S1. LC-ESI-MS/MS reaction monitoring parameters of AQ analytes in positive ionization mode. precursor product ion collision tube lens retention ion m/z m/z energy (V) offset (V) time (min)
1.2.4 Biofilm-formation assay […]
(Innvotech, Edmonton, CA). An overnight culture of PA14 was centrifuged (10 min, 5000 x g). The supernatant including extracellular polymers was removed and the pellet washed with 10 mL of LB medium. Centrifugation was repeated, the supernatant discarded, and the pellet resuspended in 5 mL of LB. OD was adjusted to 0.2. The bacteria were further diluted in LB medium, followed by addition of the target compound or DMSO control to give OD 0.1 and 1% DMSO. 150 µL were added to each well of the 96-well plate. The outer wells were used as blanks containing 150 µL of 1% DMSO in LB. Six replicates per sample were distributed evenly across the plate, with every row containing one replicate of each sample. The well plate was covered with the peg lid. One layer of parafilm was wrapped around the biofilm inoculator. The inoculator was incubated at 37 °C, static for 24 h with a beaker of H2O ensuring humidity. […]

[5] = Plasma protein binding, human (equilibrium dialysis); assay type: in vitro ADME
Procedure: (§7) 1.4.4 Pharmacokinetic and off-target functional assays (Cyprotex)
(§8) Compound 24 was assayed at Cyprotex in functional assays for interference with important off-targets as well as important pharmacokinetic parameters. With the exception of plasma protein binding, a dose-response relationship was studied in order to calculate IC50 values.
(§9) Table S10. Information on in vitro ADMET assays performed at Cyprotex. […]
Plasma protein binding assay (human and Equilibrium dialysis […]
(§10) An increase in the number of colonies of at least two-fold over baseline (mean + SD of the vehicle control) and a dose response indicate a positive response. An […]
(§11) different from the vehicle control.
(§12) Where indicated, S9 fraction from the livers of Aroclor 1254-treated rats were included in the incubation at a final concentration of 4.5%. A NADPH-regenerating system was also included to ensure a steady supply of reducing equivalents.

[6] = target: T4, IK (KCa3.1) calcium-activated potassium channel (Homo sapiens, UniProt O15554); experiment: Ion channel profiling at Charles River: IK; assay type: cell-based; details: expressed in CHO cells; read-out: ESTIMATED IC50
T4 construct: host or cells: CHO cells
Procedure: as §6
(§13) Table S9. Compound 24 was tested against the following ion channels at Charles River Laboratories. […]
FASTPatch Assay IK (KCa3.1) calcium-activated potassium channel (human KCNN4 >30 gene) expressed in CHO cells […]
as §3
GABAA α5/β3/γ2 ionotropic receptor (human GABRA5, GABRB3, >30 and GABRG2 genes, expressed in HEK293 cells

[7] = target: T5, CYP2C19 (Homo sapiens, UniProt P33261); experiment: Cytochrome P450 inhibition assay, CYP2C19; assay type: in vitro ADME; details: Metabolic activity
T5 construct: Cyprotex
Procedure: as §7, §8, §9, §10, §11, §12

[8] = target: T6, TRPV1 channel (Homo sapiens, UniProt Q8NER1); experiment: Ion channel profiling at Charles River: TRPV1; assay type: cell-based; details: expressed in HEK293 cells; read-out: ESTIMATED IC50
T6 construct: host or cells: HEK293 cells
Procedure: as §6, §13, §3
GABAA α5/β3/γ2 ionotropic receptor (human GABRA5, GABRB3, >30 and GABRG2 genes, expressed in HEK293 cells […]
TRPV1 channel (human TRPV1 gene) expressed in HEK293 cells >30 […]
as §10, §11, §12

T6 sequence (Q8NER1 whole entry): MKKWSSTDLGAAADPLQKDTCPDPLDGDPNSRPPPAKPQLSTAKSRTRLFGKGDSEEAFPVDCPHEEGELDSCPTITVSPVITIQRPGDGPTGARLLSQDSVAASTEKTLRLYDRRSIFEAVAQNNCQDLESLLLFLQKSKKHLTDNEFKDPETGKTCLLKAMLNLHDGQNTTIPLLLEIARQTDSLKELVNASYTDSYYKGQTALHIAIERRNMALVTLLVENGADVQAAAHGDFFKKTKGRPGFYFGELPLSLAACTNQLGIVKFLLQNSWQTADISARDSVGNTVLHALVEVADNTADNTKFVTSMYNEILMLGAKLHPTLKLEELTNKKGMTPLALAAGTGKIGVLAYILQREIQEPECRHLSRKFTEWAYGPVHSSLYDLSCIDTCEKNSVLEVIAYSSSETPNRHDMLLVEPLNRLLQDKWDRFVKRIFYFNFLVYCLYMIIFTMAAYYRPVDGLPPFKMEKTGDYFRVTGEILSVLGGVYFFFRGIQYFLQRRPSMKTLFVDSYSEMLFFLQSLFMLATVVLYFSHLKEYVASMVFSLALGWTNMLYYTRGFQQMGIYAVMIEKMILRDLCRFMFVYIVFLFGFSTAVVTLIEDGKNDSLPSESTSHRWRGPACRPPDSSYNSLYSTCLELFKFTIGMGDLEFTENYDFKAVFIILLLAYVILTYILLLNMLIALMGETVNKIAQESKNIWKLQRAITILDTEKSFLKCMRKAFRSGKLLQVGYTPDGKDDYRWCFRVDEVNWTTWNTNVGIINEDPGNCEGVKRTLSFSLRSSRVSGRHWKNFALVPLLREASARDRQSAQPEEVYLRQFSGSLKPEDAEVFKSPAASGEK
T5 sequence (P33261 whole entry): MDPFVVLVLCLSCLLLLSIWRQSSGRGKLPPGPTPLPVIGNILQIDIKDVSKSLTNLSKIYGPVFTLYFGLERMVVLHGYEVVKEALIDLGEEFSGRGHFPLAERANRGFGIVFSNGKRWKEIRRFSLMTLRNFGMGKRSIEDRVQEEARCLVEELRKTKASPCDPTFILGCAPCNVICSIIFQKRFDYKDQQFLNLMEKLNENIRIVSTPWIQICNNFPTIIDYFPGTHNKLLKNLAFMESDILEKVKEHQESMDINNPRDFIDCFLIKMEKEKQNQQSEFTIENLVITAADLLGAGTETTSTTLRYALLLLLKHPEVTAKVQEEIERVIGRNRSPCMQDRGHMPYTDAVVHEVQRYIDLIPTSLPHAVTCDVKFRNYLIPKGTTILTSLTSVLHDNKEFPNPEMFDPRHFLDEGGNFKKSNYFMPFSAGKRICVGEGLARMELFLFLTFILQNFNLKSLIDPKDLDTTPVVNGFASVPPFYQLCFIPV
T2 sequence (P41595 whole entry): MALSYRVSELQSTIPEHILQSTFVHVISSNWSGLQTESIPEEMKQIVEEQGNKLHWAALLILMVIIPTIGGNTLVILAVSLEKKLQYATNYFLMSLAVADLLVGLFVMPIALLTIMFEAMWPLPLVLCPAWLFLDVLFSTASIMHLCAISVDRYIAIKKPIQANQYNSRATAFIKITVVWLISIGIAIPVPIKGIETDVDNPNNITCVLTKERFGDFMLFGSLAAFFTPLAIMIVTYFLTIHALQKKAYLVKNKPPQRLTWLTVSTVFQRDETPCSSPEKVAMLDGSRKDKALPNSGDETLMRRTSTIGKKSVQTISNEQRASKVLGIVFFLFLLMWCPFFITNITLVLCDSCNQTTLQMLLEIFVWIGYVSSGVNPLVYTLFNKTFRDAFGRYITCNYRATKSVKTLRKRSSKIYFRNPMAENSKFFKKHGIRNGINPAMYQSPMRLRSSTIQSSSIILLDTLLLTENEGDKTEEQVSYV
T3 sequence (P22001 whole entry): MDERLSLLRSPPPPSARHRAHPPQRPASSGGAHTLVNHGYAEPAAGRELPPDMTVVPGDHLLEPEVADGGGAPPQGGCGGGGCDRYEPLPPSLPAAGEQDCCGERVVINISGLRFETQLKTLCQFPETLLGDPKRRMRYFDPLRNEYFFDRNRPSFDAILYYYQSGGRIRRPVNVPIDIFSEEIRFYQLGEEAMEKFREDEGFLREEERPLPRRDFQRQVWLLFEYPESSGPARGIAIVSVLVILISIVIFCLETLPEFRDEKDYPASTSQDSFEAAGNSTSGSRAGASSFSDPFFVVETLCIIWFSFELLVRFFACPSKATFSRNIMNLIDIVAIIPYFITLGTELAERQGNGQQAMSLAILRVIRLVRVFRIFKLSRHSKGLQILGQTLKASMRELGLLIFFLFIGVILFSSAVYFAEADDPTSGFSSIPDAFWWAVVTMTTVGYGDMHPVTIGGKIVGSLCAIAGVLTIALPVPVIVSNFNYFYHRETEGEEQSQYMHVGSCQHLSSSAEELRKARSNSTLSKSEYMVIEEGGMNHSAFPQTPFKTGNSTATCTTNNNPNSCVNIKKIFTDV
T1 sequence (P23975 whole entry): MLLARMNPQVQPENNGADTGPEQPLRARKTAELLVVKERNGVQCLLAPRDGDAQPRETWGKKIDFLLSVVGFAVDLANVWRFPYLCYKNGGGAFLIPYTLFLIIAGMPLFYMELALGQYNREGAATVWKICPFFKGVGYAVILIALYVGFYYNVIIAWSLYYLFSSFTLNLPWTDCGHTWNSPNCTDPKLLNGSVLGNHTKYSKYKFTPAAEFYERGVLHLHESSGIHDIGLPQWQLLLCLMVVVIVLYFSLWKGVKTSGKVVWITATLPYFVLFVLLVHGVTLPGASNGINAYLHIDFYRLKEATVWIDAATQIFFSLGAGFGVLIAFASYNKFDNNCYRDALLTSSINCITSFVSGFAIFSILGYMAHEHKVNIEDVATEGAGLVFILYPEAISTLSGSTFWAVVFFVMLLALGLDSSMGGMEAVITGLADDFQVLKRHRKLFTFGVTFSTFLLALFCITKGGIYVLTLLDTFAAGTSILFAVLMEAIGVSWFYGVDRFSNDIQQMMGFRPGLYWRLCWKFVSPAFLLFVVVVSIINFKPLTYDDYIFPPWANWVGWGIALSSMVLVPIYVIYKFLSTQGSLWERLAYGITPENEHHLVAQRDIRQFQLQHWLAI

Which IC50 [1] does the source give for `CC(C)Oc1ccc(-c2ncc(CNc3ccnc(C(F)(F)F)c3)cn2)cc1Cl` [Compound 24] here?
Its IC50 is > 10 µM.

And the IC50 [2]?
The IC50 was > 10 µM.

What about the IC50 [3] of the same compound?
The IC50 was > 30 µM.

And the IC50 ([4]; read-out: IC50 RP73, 2‐AA biosynthesis)?
Its IC50 is 0.213 µM.

And the IC50 ([4]; read-out: IC50 RP73, HHQ biosynthesis)?
Its IC50 is 0.453 µM.

And the IC50 ([4]; read-out: IC50 RP73, HQNO biosynthesis)?
The IC50 was 0.23 µM.

What about the IC50 ([4]; read-out: IC50 RP73, PQS biosynthesis) of the same compound?
The IC50 was 0.16 µM.

And the Plasma binding human [5]?
The Plasma binding human was >99%.

And the IC50 [6]?
Its IC50 is > 30 µM.

What about the IC50 [7] of the same compound?
Its IC50 is > 25 µM.

And the IC50 [8]?
The IC50 was > 30 µM.
